These results are taken from ChEMBL document CHEMBL1201862, “PubChem BioAssay data set” (2004).

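48-hour exposure; five concentrations; linearly interpolated endpoints. Abbreviation: GI50, concentration required for 50% inhibition of growth.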 Active and inactive are the calls of the source. No stated cut-off is given here; in the data, active = GI50 up to about 1.1 µM and inactive = higher.

What all share (test): inhibition of tumour cell growth, NCI panel, 48 h
Assay [1] relates to A498.
Assay [2] deals with PC-3.
Assay [3] relates to MCF7.
Assay [4] relates to MDA-MB-435.
The subject of assay [5] is HCC 2998.
The test system of assay [6] is HOP-62.
Assay [7] has as its system CCRF-CEM.
In assay [8] the test system is MDA-MB-231.
Assay [9] concerns SN12C.
The test system of assay [10] is SW-620.
Assay [11] concerns U-251.
The subject of assay [12] is MOLT-4.
The subject of assay [13] is SF-295.
For assay [14], the system named is OVCAR-8.
Assay [15] concerns HCT-116.
The test system of assay [16] is OVCAR-3.
Assay [17] deals with HCT-15.
The subject of assay [18] is SR.
Assay [19] has as its system K562.
Assay [20] deals with HL-60.

As to `CC1(C)C[C@H]2[C@H](O)C(CO)=C3C(=O)[C@@H](O)[C@]3(C)[C@H]2C1`, the GI50 in assay [1] was > 100 µM (inactive); in [2], > 100 µM (inactive); in [3], 44.8 µM (inactive); in assay [4] it was 50.5 µM (inactive); in assay [5], > 100 µM (inactive); in assay [6] it was > 100 µM (inactive). Also, the GI50 in [7] was 24.5 µM (inactive); in assay [8], > 100 µM (inactive); in [9], > 100 µM (inactive); in [10], > 100 µM (inactive); in [11] it was > 100 µM (inactive); in assay [12] it was 17.4 µM (inactive). Besides, the GI50 was > 100 µM (inactive) in [13]; > 100 µM (inactive) in assay [14]; 75.9 µM (inactive) in [15]; > 100 µM (inactive) in assay [16]; 52.5 µM in assay [17]; 50.2 µM (inactive) in assay [18]. The GI50 in [19] is 36.6 µM (inactive).

As to `CCCCOc1ccc(S(=O)(=O)N/C(=N\O)Nc2ccc(Cl)cc2)cc1`, the GI50 in assay [1] was 13.4 µM (inactive); in assay [2], 15.8 µM (inactive); in [3] it was 13.3 µM (inactive); in assay [4], 15.9 µM (inactive); in assay [5], 14.3 µM (inactive); in [6] it was 17.9 µM (inactive). Moreover, the GI50 is 19 µM (inactive) in assay [7]; 16.4 µM (inactive) in assay [8]; 17.3 µM (inactive) in [9]; 17.5 µM (inactive) in [10]; 15.5 µM (inactive) in assay [11]; 10.8 µM (inactive) in assay [12]. The GI50 in [13] was 16.9 µM (inactive); in assay [14], 17.9 µM (inactive); in assay [15], 16.9 µM (inactive); in assay [16], 14.9 µM (inactive); in assay [17] it was 14.6 µM; in assay [18], 11 µM (inactive). Also, in assay [19], the GI50 was 18.3 µM (inactive).

On to `Cc1cccc(C)c1NC(=O)C(Cc1c[nH]c2ccccc12)NC(=O)OCc1ccccc1` (configuration not stated), for which the GI50 in [1] was 21.2 µM (inactive); in assay [2], 12.3 µM (inactive); in assay [3], 23.2 µM (inactive); in assay [4], 14.7 µM (inactive); in [6] it was 41 µM (inactive); in assay [7] it was 17.8 µM (inactive). The GI50 in assay [8] is 16.7 µM (inactive); in assay [20], 12.4 µM (inactive); in [9] it was 21.5 µM (inactive); in assay [10], 27.8 µM (inactive); in assay [11], 19.5 µM (inactive); in [12] it was 15.4 µM (inactive). Also, the GI50 in assay [13] was 17 µM (inactive); in assay [14] it was 27.3 µM (inactive); in assay [15], 23.9 µM (inactive); in [16], 22.9 µM (inactive); in assay [17], 22.3 µM; in assay [18] it was 22.5 µM (inactive). Moreover, in assay [19], the GI50 is 30.2 µM (inactive).

For the molecule `O=C(O)C1CCCCC1c1c2ccc(=O)c(O)c-2oc2c(O)c(O)ccc12` (configuration not stated), the GI50 in [1] was 21.7 µM (inactive); in [2], > 100 µM (inactive); in [3], 14.2 µM (inactive); in assay [4] it was 16.7 µM (inactive); in assay [6], 31.6 µM (inactive); in assay [7], 0.18 µM (active). Also, the GI50 is 18.6 µM (inactive) in assay [8]; 20.7 µM (inactive) in assay [20]; 19.3 µM (inactive) in [9]; 17.6 µM (inactive) in assay [10]; 7.4 µM (inactive) in [11]; 22.8 µM (inactive) in [12]. Further, the GI50 in assay [13] was 23.7 µM (inactive); in assay [14], 22 µM (inactive); in assay [15], 13.2 µM (inactive); in assay [16], 42.1 µM (inactive); in [18], 27.5 µM (inactive); in assay [19] it was 17.9 µM (inactive).

Take `CC(C)=Cc1cc(C)c2c(O)cc(C)c3c2c1C(C)=C(O)C3=O`: the GI50 was 22.9 µM (inactive) in assay [1]; 32.8 µM (inactive) in [2]; 24.3 µM (inactive) in assay [3]; 26.5 µM (inactive) in assay [4]; 20.7 µM (inactive) in assay [6]; < 0.01 µM (active) in assay [7]. The GI50 in assay [8] is 24.9 µM (inactive); in assay [20] it was 29.9 µM (inactive); in assay [9], 32.9 µM (inactive); in assay [10], 31.5 µM (inactive); in assay [11], 32.7 µM (inactive); in assay [12], 25.8 µM (inactive). Besides, the GI50 in assay [13] was 22.2 µM (inactive); in assay [14], 38.1 µM (inactive); in [15], 17.7 µM (inactive); in assay [16] it was 20.6 µM (inactive); in [17] it was 23 µM; in [18], 35.3 µM (inactive). Besides, the GI50 in assay [19] is 13 µM (inactive).

For the molecule `CC(=O)OCOC(=O)CN(CC(=O)OCOC(C)=O)Cc1cc2c(cc1OC(C)=O)Oc1cc(OC(C)=O)c(CN(CC(=O)OCOC(C)=O)CC(=O)OCOC(C)=O)cc1C21OC(=O)c2ccccc21`, the GI50 was 1.25 µM (inactive) in [1]; 1.42 µM (inactive) in assay [2]; 0.342 µM (active) in assay [3]; 0.782 µM (active) in assay [4]; 1.1 µM (active) in assay [6]; 0.11 µM (active) in assay [7]. Moreover, the GI50 is 1.45 µM (inactive) in [8]; 0.01 µM (active) in assay [20]; 1.13 µM (inactive) in [9]; 0.759 µM (active) in assay [10]; 1.87 µM (inactive) in [11]; 0.241 µM (active) in assay [12]. Also, the GI50 was 1.59 µM (inactive) in assay [13]; 1.15 µM (inactive) in [14]; 0.303 µM (active) in assay [15]; 0.92 µM (active) in assay [16]; 1.66 µM in [17]; 0.016 µM (active) in assay [18]. Also, in assay [19], the GI50 was 0.122 µM (active).

In the case of `O=C(O)C1C2C=CC(O2)C1C(=O)NCc1cccnc1` (configuration not stated), the GI50 in assay [1], in [2], in assay [3], in [4], in assay [6] and in assay [7] was > 100 µM (inactive) in each case. Further, the GI50 in [8], in assay [20], in assay [9], in [10], in [11] and in assay [12] was > 100 µM (inactive) in each case. The GI50 in [13] is > 100 µM (inactive); in assay [14], > 100 µM (inactive); in assay [15] it was > 100 µM (inactive); in assay [16] it was > 100 µM (inactive); in assay [17] it was > 100 µM; in assay [18] it was > 100 µM (inactive). For the same molecule, the GI50 in assay [19] is > 100 µM (inactive).
